According to ChEMBL document CHEMBL4425121, “Discovery of Substituted 1H-Pyrazolo[3,4-b]pyridine Derivatives as Potent and Selective FGFR Kinase Inhibitors” (ACS Med Chem Lett, 2016):
pIC50: −log10 of the molar value.

How the values were obtained:
[1] = test system: NCI-H1581; assay: Antiproliferative activity against human NCI-H1581 cells after 72 hrs by CCK-8 assay; assay type: functional, cell-based; conditions: NCI-H1581, 72 h
[2] = molecular target: Fibroblast growth factor receptor 1 (Homo sapiens, UniProt P11362); assay: Inhibition of recombinant human FGFR1 using poly (Glu,Tyr)4:1 as substrate incubated for 60 mins by ELISA
[3] = molecular target: T1, Vascular endothelial growth factor receptor 2 (Homo sapiens, UniProt P35968); assay: Inhibition of recombinant human VEGFR2 using poly (Glu,Tyr)4:1 as substrate incubated for 60 mins by ELISA
[4] = AUC(0 to infinity) in ICR mouse at 2 mg/kg, iv by LC-MS/MS analysis; assay type: ADME, organism-based; design: dose 2 mg/kg, time infinity, route intravenous; conditions: in vivo
[5] = Volume of distribution in ICR mouse at 2 mg/kg, iv by LC-MS/MS analysis; assay type: ADME, organism-based; conditions: in vivo
[6] = Clearance in ICR mouse at 2 mg/kg, iv by LC-MS/MS analysis; assay type: ADME, organism-based; conditions: in vivo
[7] = test system: KG-1; assay: Antiproliferative activity against human KG1 cells after 72 hrs by CCK-8 assay; assay type: functional, cell-based; conditions: KG-1, 72 h
[8] = Cmax in ICR mouse at 12.5 mg/kg administered as oral gavage by LC-MS/MS analysis; assay type: ADME, organism-based; design: dose 12.5 mg/kg, route oral; conditions: in vivo
[9] = Antiproliferative activity against human KATO III cells after 72 hrs by CCK-8 assay; assay type: functional, cell-based
[10] = Oral bioavailability in ICR mouse at 12.5 mg/kg administered as gavage by LC-MS/MS analysis; assay type: ADME, organism-based; conditions: in vivo
[11] = AUC(0 to infinity) in ICR mouse at 12.5 mg/kg administered as oral gavage by LC-MS/MS analysis; assay type: ADME, organism-based; design: dose 12.5 mg/kg, route oral, time infinity; conditions: in vivo
[12] = Protein binding in mouse plasma at 5 uM after 4 hrs by equilibrium dialysis assay; assay type: ADME, cell-free; conditions: read-out: PPB (converted)
[13] = test system: RT-112; assay: Antiproliferative activity against human RT112 cells after 72 hrs by CCK-8 assay; assay type: functional, cell-based; conditions: RT-112, 72 h
[14] = test system: NCI-H1581; assay: Antitumor activity against human NCI-H1581 cells xenografted in nude mouse assessed as tumor growth inhibition at 12.5 mg/kg, po qd administered for 21 days; assay type: functional; conditions: 504 h, read-out: TGI
[15] = Half life in ICR mouse at 12.5 mg/kg administered as oral gavage by LC-MS/MS analysis; assay type: ADME, organism-based; conditions: in vivo
[16] = Half life in ICR mouse at 2 mg/kg, iv by LC-MS/MS analysis; assay type: ADME, organism-based; conditions: in vivo
[17] = test system: SNU-16; assay: Antiproliferative activity against human SNU16 cells after 72 hrs by CCK-8 assay; assay type: functional, cell-based; conditions: SNU-16, 72 h
[18] = Cmax in ICR mouse at 2 mg/kg, iv by LC-MS/MS analysis; assay type: ADME, organism-based; design: dose 2 mg/kg, route intravenous; conditions: in vivo
[19] = molecular target: T1, Vascular endothelial growth factor receptor 2; assay: Inhibition of VEGFR2 (unknown origin) overexpressed in mouse NIH/ 3T3 cells incubated for 5 mins followed by stimulation with VEGF for 5 mins by immunoblotting analysis; assay type: cell-based
[20] = test system: NCI-H1581; conditions: Homo sapiens
Description: Antitumor activity against human NCI-H1581 cells xenografted in nude mouse assessed as tumor growth inhibition administered orally qd for 21 days

[21] = molecular target: Fibroblast growth factor receptor 4 (Homo sapiens, UniProt P22455)
Description: Inhibition of human FGFR4 using poly (Glu,Tyr)4:1 as substrate incubated for 60 mins by ELISA

[22] = test system: NCI-H1581; assay: Antitumor activity against human NCI-H1581 cells xenografted in nude mouse assessed as tumor growth inhibition at 50 mg/kg, po qd administered for 21 days; assay type: functional; conditions: 504 h, read-out: TGI
[23] = Toxicity in nude mouse xenografted with human NCI-H1581 cells assessed as body weight loss at 50 mg/kg, po qd administered for 21 days; assay type: organism-based; conditions: in vivo, 504 h
[24] = molecular target: Fibroblast growth factor receptor 3 (Homo sapiens, UniProt P22607); assay: Inhibition of human FGFR3 using poly (Glu,Tyr)4:1 as substrate incubated for 60 mins by ELISA
[25] = molecular target: Fibroblast growth factor receptor 2 (Homo sapiens, UniProt P21802)
Description: Inhibition of human FGFR2 using poly (Glu,Tyr)4:1 as substrate incubated for 60 mins by ELISA

[26] = Toxicity in nude mouse xenografted with human NCI-H1581 cells assessed as body weight loss at 12.5 mg/kg, po qd administered for 21 days; assay type: organism-based; conditions: in vivo, 504 h

T1 sequence (P35968 whole entry): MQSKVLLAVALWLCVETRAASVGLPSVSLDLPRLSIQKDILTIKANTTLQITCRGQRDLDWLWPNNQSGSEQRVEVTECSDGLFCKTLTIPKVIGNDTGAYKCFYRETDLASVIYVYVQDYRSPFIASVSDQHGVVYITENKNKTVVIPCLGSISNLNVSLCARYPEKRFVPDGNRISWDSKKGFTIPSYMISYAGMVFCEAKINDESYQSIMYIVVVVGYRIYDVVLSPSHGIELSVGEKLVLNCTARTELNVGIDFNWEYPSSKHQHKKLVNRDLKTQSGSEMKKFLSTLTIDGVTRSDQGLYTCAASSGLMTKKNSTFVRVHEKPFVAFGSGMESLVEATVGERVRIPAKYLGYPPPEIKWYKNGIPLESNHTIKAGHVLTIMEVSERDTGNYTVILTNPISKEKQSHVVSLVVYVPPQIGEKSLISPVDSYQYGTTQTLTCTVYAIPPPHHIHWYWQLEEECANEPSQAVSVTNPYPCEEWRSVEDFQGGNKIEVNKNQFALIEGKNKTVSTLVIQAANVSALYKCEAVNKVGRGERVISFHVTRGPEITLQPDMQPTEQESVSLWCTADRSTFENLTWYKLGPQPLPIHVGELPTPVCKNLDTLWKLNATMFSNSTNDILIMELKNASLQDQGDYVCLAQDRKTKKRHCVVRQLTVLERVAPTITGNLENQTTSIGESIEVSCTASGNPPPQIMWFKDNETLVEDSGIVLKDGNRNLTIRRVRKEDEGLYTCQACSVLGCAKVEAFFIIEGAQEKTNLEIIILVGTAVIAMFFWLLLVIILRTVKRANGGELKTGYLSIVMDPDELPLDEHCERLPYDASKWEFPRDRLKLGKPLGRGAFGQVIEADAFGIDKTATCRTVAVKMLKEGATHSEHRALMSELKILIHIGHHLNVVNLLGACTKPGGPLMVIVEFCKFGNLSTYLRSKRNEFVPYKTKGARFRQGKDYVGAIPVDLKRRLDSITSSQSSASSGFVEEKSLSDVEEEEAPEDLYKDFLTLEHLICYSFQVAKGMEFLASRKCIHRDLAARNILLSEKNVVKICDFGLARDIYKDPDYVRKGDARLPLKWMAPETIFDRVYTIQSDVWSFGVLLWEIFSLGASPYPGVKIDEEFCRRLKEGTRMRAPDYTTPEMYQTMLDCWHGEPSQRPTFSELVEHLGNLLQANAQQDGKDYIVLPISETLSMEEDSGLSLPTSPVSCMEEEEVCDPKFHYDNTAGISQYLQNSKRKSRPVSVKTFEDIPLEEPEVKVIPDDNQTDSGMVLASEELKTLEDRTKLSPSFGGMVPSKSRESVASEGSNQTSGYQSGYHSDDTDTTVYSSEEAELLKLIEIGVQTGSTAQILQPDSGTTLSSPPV
Chain of Fibroblast growth factor receptor 1 (P11362 whole entry): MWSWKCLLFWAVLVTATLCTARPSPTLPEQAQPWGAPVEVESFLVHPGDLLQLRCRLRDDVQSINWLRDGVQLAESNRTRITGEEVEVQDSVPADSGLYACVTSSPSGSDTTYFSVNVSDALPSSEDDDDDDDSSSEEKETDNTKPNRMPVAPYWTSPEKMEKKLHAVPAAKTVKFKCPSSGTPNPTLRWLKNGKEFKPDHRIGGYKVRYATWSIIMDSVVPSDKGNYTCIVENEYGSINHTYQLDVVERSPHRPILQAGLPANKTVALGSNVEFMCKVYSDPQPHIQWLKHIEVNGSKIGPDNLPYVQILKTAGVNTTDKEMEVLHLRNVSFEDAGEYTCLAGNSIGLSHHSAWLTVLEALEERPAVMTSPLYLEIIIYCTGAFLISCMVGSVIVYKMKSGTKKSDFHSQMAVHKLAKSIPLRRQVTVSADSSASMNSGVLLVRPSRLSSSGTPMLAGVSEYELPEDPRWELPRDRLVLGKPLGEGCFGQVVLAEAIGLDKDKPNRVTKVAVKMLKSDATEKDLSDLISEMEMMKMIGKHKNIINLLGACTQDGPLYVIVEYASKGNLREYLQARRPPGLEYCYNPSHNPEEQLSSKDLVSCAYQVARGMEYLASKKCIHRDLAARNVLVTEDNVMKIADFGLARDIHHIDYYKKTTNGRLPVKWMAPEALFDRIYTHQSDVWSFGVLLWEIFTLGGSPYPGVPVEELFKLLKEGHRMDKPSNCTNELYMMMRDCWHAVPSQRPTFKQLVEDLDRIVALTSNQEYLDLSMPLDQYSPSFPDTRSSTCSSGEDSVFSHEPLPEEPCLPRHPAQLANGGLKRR
Chain of Fibroblast growth factor receptor 4 (P22455 whole entry): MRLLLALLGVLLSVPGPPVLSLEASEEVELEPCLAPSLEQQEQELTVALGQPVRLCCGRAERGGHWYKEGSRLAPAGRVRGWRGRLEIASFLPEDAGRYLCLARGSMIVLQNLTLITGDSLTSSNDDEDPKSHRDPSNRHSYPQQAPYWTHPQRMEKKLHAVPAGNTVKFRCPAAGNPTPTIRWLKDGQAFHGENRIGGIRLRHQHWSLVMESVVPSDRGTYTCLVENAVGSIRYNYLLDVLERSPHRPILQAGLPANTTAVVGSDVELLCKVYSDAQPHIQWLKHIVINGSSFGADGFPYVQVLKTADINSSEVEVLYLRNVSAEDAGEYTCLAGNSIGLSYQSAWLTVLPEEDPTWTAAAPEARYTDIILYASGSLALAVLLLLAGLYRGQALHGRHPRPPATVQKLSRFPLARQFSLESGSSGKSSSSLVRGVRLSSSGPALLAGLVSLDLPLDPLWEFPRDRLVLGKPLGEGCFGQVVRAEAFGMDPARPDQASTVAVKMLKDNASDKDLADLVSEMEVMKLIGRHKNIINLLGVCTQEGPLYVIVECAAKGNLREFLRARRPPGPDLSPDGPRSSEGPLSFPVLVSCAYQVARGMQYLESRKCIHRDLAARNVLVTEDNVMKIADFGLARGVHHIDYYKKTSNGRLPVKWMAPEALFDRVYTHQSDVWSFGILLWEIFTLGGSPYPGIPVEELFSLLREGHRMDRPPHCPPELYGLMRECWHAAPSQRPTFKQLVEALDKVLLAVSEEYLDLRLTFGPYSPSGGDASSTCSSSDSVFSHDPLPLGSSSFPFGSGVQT
Chain of Fibroblast growth factor receptor 2 (P21802 whole entry): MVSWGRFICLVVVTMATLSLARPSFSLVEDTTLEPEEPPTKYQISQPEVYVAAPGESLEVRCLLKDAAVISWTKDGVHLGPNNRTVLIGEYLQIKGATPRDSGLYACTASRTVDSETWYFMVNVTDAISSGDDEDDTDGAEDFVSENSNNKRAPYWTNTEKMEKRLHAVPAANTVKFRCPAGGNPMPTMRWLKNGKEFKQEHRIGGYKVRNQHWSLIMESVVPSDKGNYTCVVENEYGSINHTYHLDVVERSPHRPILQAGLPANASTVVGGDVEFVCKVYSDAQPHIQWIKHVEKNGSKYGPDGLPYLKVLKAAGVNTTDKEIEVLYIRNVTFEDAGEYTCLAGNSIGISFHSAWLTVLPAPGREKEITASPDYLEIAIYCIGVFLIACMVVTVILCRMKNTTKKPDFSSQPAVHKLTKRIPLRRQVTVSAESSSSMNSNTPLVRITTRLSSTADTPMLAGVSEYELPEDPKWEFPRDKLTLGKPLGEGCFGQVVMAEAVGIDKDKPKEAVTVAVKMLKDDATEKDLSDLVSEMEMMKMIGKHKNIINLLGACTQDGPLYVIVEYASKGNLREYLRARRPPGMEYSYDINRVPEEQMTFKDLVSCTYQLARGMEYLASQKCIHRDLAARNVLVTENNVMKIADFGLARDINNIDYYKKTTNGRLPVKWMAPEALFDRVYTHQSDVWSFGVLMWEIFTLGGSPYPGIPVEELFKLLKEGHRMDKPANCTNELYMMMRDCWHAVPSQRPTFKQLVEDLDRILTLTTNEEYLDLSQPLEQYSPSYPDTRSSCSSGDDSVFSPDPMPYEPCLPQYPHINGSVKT
Chain of Fibroblast growth factor receptor 3 (P22607 whole entry): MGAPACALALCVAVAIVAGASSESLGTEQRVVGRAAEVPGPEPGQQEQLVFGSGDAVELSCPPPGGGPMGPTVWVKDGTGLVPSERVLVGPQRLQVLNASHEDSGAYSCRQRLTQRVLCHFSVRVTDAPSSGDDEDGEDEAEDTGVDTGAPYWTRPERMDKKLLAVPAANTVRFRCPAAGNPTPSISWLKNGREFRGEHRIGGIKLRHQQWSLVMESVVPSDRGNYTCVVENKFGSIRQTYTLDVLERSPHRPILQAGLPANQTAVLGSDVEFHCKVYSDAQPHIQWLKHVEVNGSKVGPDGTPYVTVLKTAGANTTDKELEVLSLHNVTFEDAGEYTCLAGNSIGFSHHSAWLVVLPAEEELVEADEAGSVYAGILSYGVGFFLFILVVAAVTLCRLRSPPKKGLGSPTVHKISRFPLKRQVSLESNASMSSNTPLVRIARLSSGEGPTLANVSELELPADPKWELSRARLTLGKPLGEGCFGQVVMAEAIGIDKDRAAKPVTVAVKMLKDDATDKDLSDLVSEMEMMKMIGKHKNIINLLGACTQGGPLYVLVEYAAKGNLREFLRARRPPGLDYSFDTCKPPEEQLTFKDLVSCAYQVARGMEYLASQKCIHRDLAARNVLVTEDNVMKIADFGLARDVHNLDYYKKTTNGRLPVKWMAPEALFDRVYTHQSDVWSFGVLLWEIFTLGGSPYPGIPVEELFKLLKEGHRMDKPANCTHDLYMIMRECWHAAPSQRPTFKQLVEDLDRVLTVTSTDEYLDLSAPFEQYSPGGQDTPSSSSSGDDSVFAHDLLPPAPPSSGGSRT

## CCN1CCN(c2ccc(C(=O)Nc3n[nH]c4nc(-c5c(Cl)c(OC)cc(OC)c5Cl)ccc34)cc2)CC1
[1]
  pIC50: 9.15
[2]
  pIC50: 9.30

## COc1cc(OC)cc(-c2ccc3c(NC(=O)c4ccc(N5CCN(C)CC5)cc4)n[nH]c3n2)c1
[1]
  pIC50: < 6.00
[3]
  pIC50: 6.26
[2]
  pIC50: 5.43

## COc1cc(OC)c(Cl)c(-c2ccc3c(NC(=O)c4ccc(N5CCN(C6CCC6)CC5)cc4)n[nH]c3n2)c1Cl
[1]
  pIC50: 8.64
[2]
  pIC50: 9.70

## COc1cc(OC)c(Cl)c(-c2ccc3c(NC(=O)c4ccc(N5CCN(C)CC5)c(Cl)c4)n[nH]c3n2)c1Cl
[1]
  pIC50: 6.72
[2]
  pIC50: 7.84

## COc1cc(OC)c(Cl)c(-c2ccc3c(NC(=O)c4ccc(N5CCN(C)CC5)cc4)n[nH]c3n2)c1Cl
[1]
  pIC50: 8.77
[3]
  pIC50: 6.44
[2]
  pIC50: 9.52

## COc1cc(OC)c(Cl)c(-c2ccc3c(NC(=O)c4ccc(N5CCOCC5)cc4)n[nH]c3n2)c1Cl
[1]
  pIC50: 6.06
[2]
  pIC50: 8.11

## COc1cc(OC)c(Cl)c(-c2ccc3c(NC(=O)c4ccc(N5CCN(C)CC5)cc4)n[nH]c3c2)c1Cl
[1]
  pIC50: 6.49
[2]
  pIC50: 8.48

## COc1cc(OC)c(Cl)c(-c2ccc3c(NC(=O)c4ccc(N5CCN(C(C)=O)CC5)cc4)n[nH]c3n2)c1Cl
[1]
  pIC50: 7.36
[2]
  pIC50: 9.52

## COc1cc(CCc2cc(NC(=O)c3ccc(N4C[C@@H](C)N[C@@H](C)C4)cc3)n[nH]2)cc(OC)c1 [FEXAGRATINIB]
[4]
  AUC(0-inf): 2080 ng·h/mL
[5]
  Vd: 3.18 L/kg
[6]
  clearance: 16.1 mL/min/kg
[7]
  pIC50: > 9.70
[8]
  Cmax: 1350 ng/mL
[9]
  pIC50: 7.69
[10]
  bioavailability: 74.7%
[1]
  pIC50: 7.42
[11]
  AUC(0-inf): 9130 ng·h/mL
[12]
  fraction unbound at 4 h, 5 µM: 0.007
[13]
  pIC50: 9.22
[14]
  inhibition in vivo at 12.5 mg/kg: 77.1%
[15]
  half-life: 2.55 h
[16]
  half-life: 2.29 h
[17]
  pIC50: 8.92
[18]
  Cmax: 1880 ng/mL

## COc1cc(OC)c(Cl)c(-c2ccc3c(NC(=O)c4ccc(C5CCN(C)CC5)cc4)n[nH]c3n2)c1Cl
[1]
  pIC50: 8.09
[2]
  pIC50: 8.16

## COc1cc(OC)c(Cl)c(-c2ccc3c(NC(=O)c4cnc(N5CCN(C)CC5)cn4)n[nH]c3n2)c1Cl
[1]
  pIC50: 7.22
[2]
  pIC50: 7.98

## COc1cc(OC)c(Cl)c(-c2ccc3c(NC(=O)c4ccc(N)cc4)n[nH]c3n2)c1Cl
[1]
  pIC50: 6.66
[2]
  pIC50: 8.06

## COc1cc(OC)c(Cl)c(-c2ccc3c(NC(=O)c4ccc(N5CCN(C)CC5)cn4)n[nH]c3n2)c1Cl
[1]
  pIC50: 8.36
[2]
  pIC50: 8.11

## C=CCN1CCN(c2ccc(C(=O)Nc3n[nH]c4nc(-c5c(Cl)c(OC)cc(OC)c5Cl)ccc34)cc2)CC1
[1]
  pIC50: 8.48
[2]
  pIC50: 9.22

## COc1cc(OC)c(Cl)c(-c2ccc3c(NC(=O)c4ccc(N5CCN(C(C)C)CC5)cc4)n[nH]c3n2)c1Cl
[1]
  pIC50: 8.85
[2]
  pIC50: 8.85

## COc1cc(OC)c(Cl)c(-c2ccc3c(NC(=O)c4ccc(N5CCN(S(C)(=O)=O)CC5)cc4)n[nH]c3n2)c1Cl
[1]
  pIC50: 6.61
[2]
  pIC50: 9.70

## CCN(CC)CCCCNc1ncc2cc(-c3cc(OC)cc(OC)c3)c(NC(=O)NC(C)(C)C)nc2n1 [PD-173074]
[19]
  pIC50: 6.70 to 7.00

## COc1cc(OC)c(Cl)c(-c2ccc3c(NC(=O)c4ccc(N5CCN(C)CC5)nc4)n[nH]c3n2)c1Cl
[1]
  pIC50: 8.82
[2]
  pIC50: 8.21

## COCCN1CCN(c2ccc(C(=O)Nc3n[nH]c4nc(-c5c(Cl)c(OC)cc(OC)c5Cl)ccc34)cc2)CC1
[4]
  AUC(0-inf): 2000 ng·h/mL
[5]
  Vd: 4.51 L/kg
[20]
  TGI: Dose-dependent effect
[6]
  clearance: 16.6 mL/min/kg
[7]
  pIC50: > 9.70
[21]
  pIC50: 7.28
[8]
  Cmax: 1650 ng/mL
[9]
  pIC50: > 9.40
[10]
  bioavailability: 72%
[22]
  inhibition in vivo at 50 mg/kg: 100%
[1]
  pIC50: 9.15
[11]
  AUC(0-inf): 9010 ng·h/mL
[12]
  fraction unbound at 4 h, 5 µM: 0.004
[13]
  pIC50: > 9.70
[14]
  inhibition in vivo at 12.5 mg/kg: 54%
[15]
  half-life: 2.76 h
[23]
  Activity: Non-Toxic
[24]
  pIC50: 8.70
[25]
  pIC50: 9.15
[16]
  half-life: 3.13 h
[17]
  pIC50: > 9.70
[18]
  Cmax: 826 ng/mL
[2]
  pIC50: 9.52
[26]
  Activity: Non-Toxic

## COc1cc(OC)c(Cl)c(-c2ccc3c(NC(=O)c4ccc(N5CCCCC5)cc4)n[nH]c3n2)c1Cl
[1]
  pIC50: 6.25
[2]
  pIC50: 8.06

## COc1cc(OC)c(Cl)c(-c2ccc3c(NC(=O)c4ccc(N5CCN(C)CC5)cc4)nn(C)c3n2)c1Cl
[2]
  pIC50: < 5.30

## COc1cc(OC)c(Cl)c(-c2ccc3c(NC(=O)c4ccc(N5CCNCC5)cc4)n[nH]c3n2)c1Cl
[1]
  pIC50: 8.85
[2]
  pIC50: 7.93

## COc1cc(C(=O)Nc2n[nH]c3nc(-c4c(Cl)c(OC)cc(OC)c4Cl)ccc23)ccc1N1CCN(C)CC1
[1]
  pIC50: 7.81
[2]
  pIC50: 7.85

## COc1cc(OC)c(Cl)c(-c2ccc3c(NC(=O)c4ccc(N5CCN(C)CC5)s4)n[nH]c3n2)c1Cl
[1]
  pIC50: 8.43
[2]
  pIC50: 8.39

## COc1cc(OC)c(Cl)c(-c2ccc3c(NC(=O)c4ccc(N5CCN(CCO)CC5)cc4)n[nH]c3n2)c1Cl
[4]
  AUC(0-inf): 1080 ng·h/mL
[5]
  Vd: 10 L/kg
[6]
  clearance: 31 mL/min/kg
[8]
  Cmax: 802 ng/mL
[10]
  bioavailability: 52.3%
[1]
  pIC50: > 9.30
[11]
  AUC(0-inf): 3510 ng·h/mL
[12]
  fraction unbound at 4 h, 5 µM: 0.005
[15]
  half-life: 3.38 h
[16]
  half-life: 3.74 h
[18]
  Cmax: 796 ng/mL
[2]
  pIC50: 9.52

## COc1cc(OC)c(Cl)c(-c2ccc3c(NC(=O)c4ccc(N(C)CCN(C)C)cc4)n[nH]c3n2)c1Cl
[1]
  pIC50: 7.96
[2]
  pIC50: 8.41

## COc1cc(OC)c(Cl)c(-c2ccc3c(NC(=O)c4ccc(N5CCN(C)CC5)cc4Cl)n[nH]c3n2)c1Cl
[1]
  pIC50: 7.56
[2]
  pIC50: 7.85

## COc1cc(OC)c(Cl)c(-c2ccc3c(NC(=O)c4ccc(N5CCCN(C)CC5)cc4)n[nH]c3n2)c1Cl
[4]
  AUC(0-inf): 1840 ng·h/mL
[5]
  Vd: 5.43 L/kg
[6]
  clearance: 18.1 mL/min/kg
[8]
  Cmax: 500 ng/mL
[10]
  bioavailability: 40.2%
[1]
  pIC50: 8.89
[11]
  AUC(0-inf): 4620 ng·h/mL
[12]
  fraction unbound at 4 h, 5 µM: 0.004
[15]
  half-life: 2.9 h
[16]
  half-life: 3.47 h
[18]
  Cmax: 870 ng/mL
[2]
  pIC50: 8.14

## COc1cc(OC)c(Cl)c(-c2ccc3c(NC(=O)c4ccc(N(C)C)cc4)n[nH]c3n2)c1Cl
[1]
  pIC50: 6.53
[2]
  pIC50: 7.78

## COc1cc(N2CCN(C)CC2)ccc1C(=O)Nc1n[nH]c2nc(-c3c(Cl)c(OC)cc(OC)c3Cl)ccc12
[1]
  pIC50: 6.28
[2]
  pIC50: 7.13

## COc1cc(OC)c(Cl)c(-c2ccc3c(NC(=O)c4ccccc4)n[nH]c3n2)c1Cl
[1]
  pIC50: < 6.00
[2]
  pIC50: 7.37
